# Values of other authors, collected in patent US20070185063A1, “Seven-membered ring nucleosides” (Idenix Pharmaceuticals, Inc., priority 2005, published 2007).
# Experiments:
# HCV = settings: ribavirin alone
# [1] = system: erythroid burst-forming (BFU-E) activity; settings: in vitro, bone marrow cells from healthy volunteers; clinically relevant concentrations
# [2] = system: human granulocyte-macrophage colony-forming (CFU-GM) activity; settings: in vitro, bone marrow cells from healthy volunteers; clinically relevant concentrations
# [3] = in vivo
structure (smiles),measurement,setting,value
"NC(=O)c1ncn([C@@H]2O[C@H](CO)[C@@H](O)[C@H]2O)n1 [Ribavirin, 1-β-D-ribofuranosyl-1-1,2,4-triazole-3-carboxamide]",effect on serum levels of HCV-RNA,HCV,does not lower serum levels of HCV-RNA
same,patients in whom serum amino transferase levels are reduced to normal,HCV,40%
"Cc1cn([C@H]2C[C@H](N=[N+]=[N-])[C@@H](CO)O2)c(=O)[nH]c1=O [ZDV, zidovudine]",concentration that directly inhibits BFU-E activity,[1],1000 to 2000 nM
same,concentration that directly inhibits CFU-GM activity,[2],1000 to 2000 nM
"O=c1[nH]c(=O)n([C@@H]2O[C@H](CO)[C@@H](O)[C@@H]2F)cc1I [fialuridine, 1,-2′-deoxy-2′-fluoro-1-β-D-arabinofuranosyl-5-iodo-uracil]",clinical adverse events due to direct mitochondrial toxicity,[3],"caused hepatic failure, pancreatitis, neuropathy, myopathy and lactic acidosis"
